Measurements as given in US20120283327A1, “PHARMACEUTICAL COMPOSITIONS AND THERAPEUTIC APPLICATIONS OF A HYDROCORTISONE DERIVATIVE DESIGNATED AS DEINA” (priority 2009, published 2012).

What was measured:
[1] = system: bioptic animal samples (skin, chondrocyte, mucosal and follicular vitality); experiment: Optical microscopy of cultured biopsies: cytokeratin 10 and 11 expression and haematoxylin/eosin histology; assay type: cell-based
Description: The bioptic animal samples in the investigation comprised biopsies of: • chronic atrophic cutaneous lesions due to venous stasis (base and margins), • damaged joint cartilage (chronic degenerative osteo-articular arthritis), • terminal cicatricial scalp (post-traumatic or surgical lesions), • hyperkeratosis of the oral cavity (vitamin B deficiency).
All the samples were washed three times with physiological saline and antibiotics (100 units/ml of penicillin+100 μg/ml of streptomycin+160 mg/L gentamycin, fluconazole 0.2 mg/ml) for 10 minutes at ambient temperature.
The biopsies were then sectioned into three parts (two controls, 1 and 2, and one sample, 3, to be treated for each patient) and suspended in a final volume of 25 ml of the corresponding culture solutions within 10 cm slides (Lab-Tek chamber slides, Nunc, Kamstrup, Denmark).
Two types of controls were prepared, an untreated negative control (1), that is one treated with physiological saline and antibiotics only (as described above), and a positive control (2) treated with media for ordinary cell culture for skin biopsies.
2. Positive control: Controlled bioptic specimens 2 were placed between 10 cm slides (Lab-Tek chamber slides, Nunc, Kamstrup, Denmark) in D-MEM medium supplemented with:
3. Samples-1 and -2. Bioptic samples 1 and 2 were placed between 10 cm slides (Lab-Tek chamber slides, Nunc, Kamstrup, Denmark) in medium in a solution of Deina® culture medium (double test). […]
Results relating to the expression of cytokeratin 10 and 11 and histological staining of the bioptic preparations with haematoxylin/eosin (used to display skin, chondrocyte, mucosal and follicular vitality) are shown in Table 6 (CONTROLS) and Table 7 (SAMPLES), and have been expressed using a qualitative and semi-quantitative scale. […]
Samples belonging to the type of the Sample treatment group (Deina®). Median semi-quantitative values for incubation days 7 and 60.

bilateral joint changes = assay type: in vivo
Description: A clinical trial to evaluate tolerance and efficacy for the compound known as infusional Deina® (composition shown in Table 3) was also performed on a compassionate basis.
Twenty cases (dogs of different breed, size, body weight, sex and age).
The quantity of solution inoculated was equal to the quantity of synovial fluid aspirated and analysed.
a. Time Zero • Collection of case history and clinical examination comprising full blood counts, including LACTATES to check metabolic oxidation, • Radiography of the limb in question, • ROM (Range Of Motion), • Exploratory arthroscopy, • Exclusion of any intra-articular curettage, • Arthrocentesis with removal and morphological/cytological and biochemical examination of the synovial fluid, • Histological examination of a sample of joint cartilage, • Intra-articular inoculation of the solutions tested equal to the quantity of synovial fluid withdrawn and always in the same way (bilateral lesions): of Deina®.
A synovial examination and intra-articular injection of the solution was repeated weekly or for four/eight times, depending on the severity of the initial pathological condition.
b. End of the Treatment Cycle • Arthrocentesis with removal and morphological/cytological and biochemical examination of the synovial fluid, • Histological examination of a sample of joint cartilage, • Radiography of the joint in question, • ROM (Range Of Motion), • Blood lactic acid content, • Clinical examination and recording.

[2] = Deina infusional formulation, intra-articular, weekly four/eight times, 20 dogs

CC1(CCC(=O)O)C(=O)CCC2C1C(O)CC1(C)C2CCC1(O)C(=O)CO (stereo not drawn) [Deina®, 3-[3,5-Dihydroxy-3-(2-hydroxy-acetyl)-3a,6-dimethyl-7-oxo-dodecahydro-cyclo-penta[alpha]naphthalen-6-yl]-propionic acid]
cytokeratin 10 and 11 (typical of normal tegument and scalp tissues with vital follicles) ([1]; optical microscopy, Table 7 summary): net predominance | number of cells (staining with eosin and haematoxylin) ([1]; samples treated for two months, versus controls): net increase | histological state of the cultured tissue ([1]; short term (7 days) up to two months of culture): trophic, vital and active | cases in which pain and palpation fell (bilateral joint changes; [2]): 100% | cases with clinical improvement (bilateral joint changes; [2]): 70% | cases with increased ROM (Range of Motion) (bilateral joint changes; [2]): 90% | tolerance (bilateral joint changes; dog, in vivo): optimum tolerance
